Among the data in patent US11174253B2, “Compound and pharmaceutical composition containing the same” (ALPHALA CO., LTD., priority 2017, dated 2021) are viability values, retold here.

The first test deals with hepatocellular carcinoma cell line Hep3B. Description: Growth inhibition of Hep3B cells, 48 hr treatment, Hoechst 33342 nucleus count (GE InCell 2200). The class given is cell-based. The settings on record: Homo sapiens, Table 5, ratio of number of tumor cells treated with 10 μM compound to non-treated cells. As for the experimental part: The potency of selected compounds was defined by the growth inhibition ability to the hepatocellular carcinoma cell line Hep3B. The Hep3B cells were treated with selected compounds for 48 hr under 37° C., 5% CO2, and 95% relative humidity.
The number of treated cells was determined by GE InCell 2200 system, and treated cells were stained with Hoechst 33342 which can reveal the remained nucleus in culture plate. The proportion of survival cells then were calculated with the ratio of treated/non-treated cells. The growth inhibition/cytotoxic effect of selected compounds were evaluated by the following protocol of NCI-60 screening platform. The human tumor cell lines are plating on a 96 well plate in a fixed density 24 hr prior compound treatment. Compounds with multiple concentrations are then added into each well for further 48 hr incubation. Cell viability is assessed by MTS method and the potency of compound is represented by GI50 and LC50 calculated by MTS result.
Herein, the “Ratio in 10 μM (%)” in the following Tables 1-6 refers to the ratio of the number of tumor cells treated with 10 μM of selected compounds to the number of non-treated tumer cells.
`CCCc1ccc(-c2nc(NC(=O)c3ccc([N+](=O)[O-])s3)sc2Oc2ccccc2)cc1` [Compound 5-77, 5-nitro-N-(5-phenoxy-4-(4-propylphenyl)thiazol-2-yl)thiophene-2-carboxamide]: the viability at 10 µM was 33%.
Take `CCCc1ccc(-c2nc(NC(=O)c3ccc([N+](=O)[O-])s3)sc2Oc2ccccc2F)cc1` [Compound 5-78, N-(5-(2-fluorophenoxy)-4-(4-propylphenyl)thiazol-2-yl)-5-nitrothiophene-2-carboxamide]: the viability at 10 µM was 33%.
As to `CCCCc1ccc(-c2nc(NC(=O)c3ccc([N+](=O)[O-])s3)sc2Oc2ccccc2)cc1` [Compound 5-79, N-(4-(4-butylphenyl)-5-phenoxythiazol-2-yl)-5-nitrothiophene-2-carboxamide], the viability at 10 µM was determined as 31%.
Same read-out and setting: the figure for `CCOc1ccc(-c2nc(N(C)C(=O)c3ccc([N+](=O)[O-])s3)sc2Oc2ccccc2)cc1` [Compound 5-82, N-(4-(4-ethoxyphenyl)-5-phenoxythiazol-2-yl)-N-methyl-5-nitrothiophene-2-carboxamide] is 59%.
Still for that read-out and setting: the figure for `O=C(Nc1nc(-c2ccc(C(F)(F)F)cc2)c(Oc2ccccc2F)s1)c1ccc([N+](=O)[O-])s1` [Compound 5-83, N-(5-(2-fluorophenoxy)-4-(4-(trifluoromethyl)phenyl)thiazol-2-yl)-5-nitrothiophene-2-carboxamide] is 36%.
With `O=C(Nc1nc(-c2ccc(OC(F)(F)F)cc2)c(Oc2ccccc2)s1)c1ccc([N+](=O)[O-])s1` [Compound 5-84, 5-nitro-N-(5-phenoxy-4-(4-(trifluoromethoxy)phenyl)thiazol-2-yl)thiophene-2-carboxamide], the viability at 10 µM is 34%.
On the same count and under the same terms, the figure for `CCCCOc1ccc(-c2nc(NC(=O)c3ccc([N+](=O)[O-])s3)sc2Oc2ccc(Br)cc2)cc1` [Compound 5-86, N-(5-(4-bromophenoxy)-4-(4-butoxyphenyl)thiazol-2-yl)-5-nitrothiophene-2-carboxamide] is 24%; for `CCCCOc1ccc(-c2nc(NC(=O)c3ccc([N+](=O)[O-])s3)sc2Oc2cc(C)c(Br)c(C)c2)cc1` [Compound 5-87, N-(5-(4-bromo-3,5-dimethylphenoxy)-4-(4-butoxyphenyl)thiazol-2-yl)-5-nitrothiophene-2-carboxamide] it is 36%; for `CCCc1ccc(Oc2sc(NC(=O)c3ccc([N+](=O)[O-])s3)nc2-c2ccc(C(C)(C)C)cc2)cc1` [Compound 5-88, N-(4-(4-(tert-butyl)phenyl)-5-(4-propylphenoxy)thiazol-2-yl)-5-nitrothiophene-2-carboxamide] it is 36%.
Still for that read-out and setting: the figure for `CCCCc1ccc(Oc2sc(NC(=O)c3ccc([N+](=O)[O-])s3)nc2-c2ccc(C(C)(C)C)cc2)cc1` [Compound 5-89, N-(4-(4-(tert-butyl)phenyl)-5-(4-butylphenoxy)thiazol-2-yl)-5-nitrothiophene-2-carboxamide] is 36%; for `CCCCOc1ccc(-c2nc(NC(=O)c3ccc([N+](=O)[O-])s3)sc2Oc2ccc(C(C)(C)C)cc2)cc1` [Compound 5-90, N-(4-(4-butoxyphenyl)-5-(4-(tert-butyl)phenoxy)thiazol-2-yl)-5-nitrothiophene-2-carboxamide] it is 48%.
Same read-out and setting: the value for `CCCCOc1ccc(-c2nc(NC(=O)c3ccc([N+](=O)[O-])s3)sc2Oc2ccc(C#N)cc2)cc1` [Compound 5-91, N-(4-(4-butoxyphenyl)-5-(4-cyanophenoxy)thiazol-2-yl)-5-nitrothiophene-2-carboxamide] was 46%.
Take `NCCCCCOc1ccc(-c2nc(NC(=O)c3ccc([N+](=O)[O-])s3)sc2Oc2ccccc2)cc1` [Compound 5-92, N-(4-(4-((5-aminopentyl)oxy)phenyl)-5-phenoxythiazol-2-yl)-5-nitrothiophene-2-carboxamide]: the viability at 10 µM stood at 46%.
On to `CCCCOc1ccc(-c2nc(NC(=O)c3ccc([N+](=O)[O-])s3)sc2Oc2ccc(CCC)cc2)cc1` [Compound 5-93, N-(4-(4-butoxyphenyl)-5-(4-propylphenoxy)thiazol-2-yl)-5-nitrothiophene-2-carboxamide], for which the viability at 10 µM came to 45%.
On the same count and under the same terms, the value for `CCCCc1ccc(-c2nc(NC(=O)c3ccc([N+](=O)[O-])s3)sc2Oc2ccc(F)cc2)cc1` [Compound 5-94, N-(4-(4-butylphenyl)-5-(4-fluorophenoxy)thiazol-2-yl)-5-nitrothiophene-2-carboxamide] was 32%.
The same measure, in the same setting: the figure for `CCCOc1ccc(Oc2sc(NC(=O)c3ccc([N+](=O)[O-])s3)nc2-c2ccc(C(C)(C)C)cc2)cc1` [Compound 5-95, N-(4-(4-(tert-butyl)phenyl)-5-(4-propoxyphenoxy)thiazol-2-yl)-5-nitrothiophene-2-carboxamide] is 38%.
For the compound `CC(C)(C)c1ccc(Oc2sc(NC(=O)c3ccc([N+](=O)[O-])s3)nc2-c2ccc(C(C)(C)C)cc2)cc1` [Compound 5-96, N-(5-(4-(tert-butyl)phenoxy)-4-(4-(tert-butyl)phenyl)thiazol-2-yl)-5-nitrothiophene-2-carboxamide], the viability at 10 µM was determined as 47%.
Same read-out and setting: the figure for `CCCCOc1ccc(-c2nc(NC(=O)c3ccc([N+](=O)[O-])s3)sc2Oc2ccc(C(C)(C)CC)cc2)cc1` [Compound 5-98, N-(4-(4-butoxyphenyl)-5-(4-(tert-pentyl)phenoxy)thiazol-2-yl)-5-nitrothiophene-2-carboxamide] is 50%; for `Cc1cc(Oc2sc(NC(=O)c3ccc([N+](=O)[O-])s3)nc2-c2ccc(C(C)(C)C)cc2)cc(C)c1Br` [Compound 5-99, N-(5-(4-bromo-3,5-dimethylphenoxy)-4-(4-(tert-butyl)phenyl)thiazol-2-yl)-5-nitrothiophene-2-carboxamide] it is 40%.
For the compound `Cc1cc(Oc2sc(NC(=O)c3ccc([N+](=O)[O-])s3)nc2-c2ccc(F)cc2)cc(C)c1Br` [Compound 5-100, N-(5-(4-bromo-3,5-dimethylphenoxy)-4-(4-fluorophenyl)thiazol-2-yl)-5-nitrothiophene-2-carboxamide], the viability at 10 µM is 30%.
Still for that read-out and setting: the value for `CCC(C)(C)c1ccc(Oc2sc(NC(=O)c3ccc([N+](=O)[O-])s3)nc2-c2ccc(C(C)(C)C)cc2)cc1` [Compound 5-101, N-(4-(4-(tert-butyl)phenyl)-5-(4-(tert-pentyl)phenoxy)thiazol-2-yl)-5-nitrothiophene-2-carboxamide] was 48%.
Take `CCc1ccc(-c2nc(NC(=O)c3ccc([N+](=O)[O-])s3)sc2Oc2ccc(C(C)(C)C)cc2)cc1` [Compound 5-102, N-(5-(4-(tert-butyl)phenoxy)-4-(4-ethylphenyl)thiazol-2-yl)-5-nitrothiophene-2-carboxamide]: the viability at 10 µM is 40%.
The same measure, in the same setting: the value for `CCc1ccc(-c2nc(NC(=O)c3ccc([N+](=O)[O-])s3)sc2Oc2ccc(C(C)(C)CC)cc2)cc1` [Compound 5-103, N-(4-(4-ethylphenyl)-5-(4-(tert-pentyl)phenoxy)thiazol-2-yl)-5-nitrothiophene-2-carboxamide] was 33%; that for `CCCCc1ccc(-c2nc(NC(=O)c3ccc([N+](=O)[O-])s3)sc2Oc2ccc(C(C)(C)CC)cc2)cc1` [Compound 5-104, N-(4-(4-butylphenyl)-5-(4-(tert-pentyl)phenoxy)thiazol-2-yl)-5-nitrothiophene-2-carboxamide] was 56%; that for `Cc1ccc(Oc2sc(NC(=O)c3ccc([N+](=O)[O-])s3)nc2-c2ccc(C(C)(C)C)cc2)cc1` [Compound 5-105, N-(4-(4-(tert-butyl)phenyl)-5-(p-tolyloxy)thiazol-2-yl)-5-nitrothiophene-2-carboxamide] was 30%.
On the same count and under the same terms, the value for `CCCCOc1ccc(-c2nc(NC(=O)c3ccc([N+](=O)[O-])s3)sc2Oc2cc(C)cc(C)c2)cc1` [Compound 5-106, N-(4-(4-butoxyphenyl)-5-(3,5-dimethylphenoxy)thiazol-2-yl)-5-nitrothiophene-2-carboxamide] was 29%.

Still in this test, the particulars now being: Homo sapiens, Table 6, ratio of number of tumor cells treated with 10 μM compound to non-treated cells.
Consider `Cc1ccc(-c2nc(NC(=O)c3ccc([N+](=O)[O-])s3)sc2-c2cccc([N+](=O)[O-])c2)cc1` [Compound 6-3, 5-nitro-N-(5-(3-nitrophenyl)-4-(p-tolyl)thiazol-2-yl)thiophene-2-carboxamide], for which the viability at 10 µM was found to be 84%.
On the same count and under the same terms, the value for `COc1ccc(-c2sc(NC(=O)c3ccc([N+](=O)[O-])s3)nc2-c2ccc(C)cc2)cc1OC` [Compound 6-4, N-(5-(3,4-dimethoxyphenyl)-4-(p-tolyl)thiazol-2-yl)-5-nitrothiophene-2-carboxamide] was 64%.
As for `Cc1ccc(-c2nc(NC(=O)c3ccc([N+](=O)[O-])s3)sc2-c2ccc(F)cc2)cc1` [Compound 6-6, N-(5-(4-fluorophenyl)-4-(p-tolyl)thiazol-2-yl)-5-nitrothiophene-2-carboxamide], the viability at 10 µM was 48%.
Still for that read-out and setting: the value for `O=C(Nc1nc(-c2ccc(Br)cc2)cs1)c1ccc([N+](=O)[O-])s1` [Compound 6-7, N-(4-(4-bromophenyl)thiazol-2-yl)-5-nitrothiophene-2-carboxamide] was 81%.
Same read-out and setting: the value for `O=C(Nc1nc(-c2ccc(Br)cc2)c(-c2ccccc2)s1)c1ccc([N+](=O)[O-])s1` [Compound 6-9, N-(4-(4-bromophenyl)-5-phenylthiazol-2-yl)-5-nitrothiophene-2-carboxamide] was 71%.
